Laboratory results published in paper PMC11480411, “Mucosal sugars delineate pyrazine vs pyrazinone autoinducer signaling in Klebsiella oxytoca” (Nature Communications, 2024).
Values joined by “and” are separate entries in the source; they are usually repeats but may differ in a detail not shown here. Identical values can stand only once.

Assays:
[1] = target: T1, histamine receptor H4 (HRH4) (Homo sapiens, UniProt Q9H3N8); assay: PRESTO-Tango GPCR screen and dose-response; assay type: cell-based; conditions: for HRH4 dose-response raw reporter signal (Fig. 5b source data): replicate wells
T1 construct: expressed in transfected cells; host or cells: HTLA cells (HEK293 line stably expressing β-arrestin-TEV and tTA-Luciferase)
T1 sequence (Q9H3N8 whole entry): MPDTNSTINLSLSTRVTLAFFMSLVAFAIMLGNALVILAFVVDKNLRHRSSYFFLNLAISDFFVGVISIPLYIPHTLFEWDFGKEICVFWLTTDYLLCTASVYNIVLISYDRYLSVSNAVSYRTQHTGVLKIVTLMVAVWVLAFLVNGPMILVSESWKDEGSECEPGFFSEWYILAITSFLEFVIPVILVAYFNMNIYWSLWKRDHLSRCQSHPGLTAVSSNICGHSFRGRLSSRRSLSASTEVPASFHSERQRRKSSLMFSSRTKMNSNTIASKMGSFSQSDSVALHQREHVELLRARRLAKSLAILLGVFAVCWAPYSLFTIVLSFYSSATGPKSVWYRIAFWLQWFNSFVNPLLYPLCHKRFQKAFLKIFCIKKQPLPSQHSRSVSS
Description: (§1) The PRESTO-Tango analyses were performed as previously published. Briefly, HTLA cells, a HEK293 cell line that stably expresses β-arrestin-TEV and tTA-Luciferase (a kind gift from Gilad Barnea, Brown University), were plated in 96-well tissue culture plates (Eppendorf) in DMEM containing 10% FBS and 1% Penicillin/Streptomycin. One day after plating (after reaching approximately 90% confluence), 200 ng per well GPCR-Tango plasmids[37] in 20 μL DMEM were individually mixed with 400 ng polyethylenimine (Polysciences) in an equal volume of DMEM and incubated for 20 min at room temperature before adding the transfection mixture to the HTLA cells. 16-24 h after transfection, medium was replaced with 180 μL fresh DMEM containing 1% Penicillin/Streptomycin and 10 mM HEPES and 20 μL of 3 or 3-Homo to reach a final concentration of 100 μM. Supernatants were aspirated 20 h after stimulation and 50 μl per well of Bright-Glo solution (Promega) diluted 20-fold with PBS containing 20 mM HEPES was added into each well. After 15 min incubation at room temperature, luminescence was quantified using a Spectramax i3x microplate reader (Molecular Devices). Activation fold for each sample was calculated by dividing relative luminescence units (RLU) for each condition by RLUs from PBS control. Dose response curves of each chemical were performed in a similar way with varying the ligand concentration from 10^−4 M to 10^−15 M.

[2] = target: T2, HRH1 (Homo sapiens, UniProt P35367); assay: PRESTO-Tango GPCR screen and dose-response; assay type: cell-based; conditions: for HRH1 dose-response raw reporter signal (Fig. 5b source data): replicate wells
T2 construct: expressed in transfected cells; host or cells: HTLA cells (HEK293 line stably expressing β-arrestin-TEV and tTA-Luciferase)
T2 sequence (P35367 whole entry): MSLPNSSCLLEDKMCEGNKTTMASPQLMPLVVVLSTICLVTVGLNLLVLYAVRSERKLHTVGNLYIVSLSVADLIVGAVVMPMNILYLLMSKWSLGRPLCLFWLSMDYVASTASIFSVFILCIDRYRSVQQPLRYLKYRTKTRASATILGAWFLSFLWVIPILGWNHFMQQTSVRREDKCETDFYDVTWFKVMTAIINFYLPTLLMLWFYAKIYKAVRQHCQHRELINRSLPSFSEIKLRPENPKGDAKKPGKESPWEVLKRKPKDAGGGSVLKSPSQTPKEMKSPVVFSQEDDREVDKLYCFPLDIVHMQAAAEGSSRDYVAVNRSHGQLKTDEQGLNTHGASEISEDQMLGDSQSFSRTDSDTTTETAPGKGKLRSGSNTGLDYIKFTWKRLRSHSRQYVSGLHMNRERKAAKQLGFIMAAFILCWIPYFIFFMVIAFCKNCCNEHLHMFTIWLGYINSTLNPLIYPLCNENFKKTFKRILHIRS
Description: as §1

[3] = target: T3, HRH2 (Homo sapiens, UniProt P25021); assay: PRESTO-Tango GPCR screen and dose-response; assay type: cell-based; conditions: for HRH2 dose-response raw reporter signal (Fig. 5b source data): replicate wells
T3 construct: expressed in transfected cells; host or cells: HTLA cells (HEK293 line stably expressing β-arrestin-TEV and tTA-Luciferase)
T3 sequence (P25021 whole entry): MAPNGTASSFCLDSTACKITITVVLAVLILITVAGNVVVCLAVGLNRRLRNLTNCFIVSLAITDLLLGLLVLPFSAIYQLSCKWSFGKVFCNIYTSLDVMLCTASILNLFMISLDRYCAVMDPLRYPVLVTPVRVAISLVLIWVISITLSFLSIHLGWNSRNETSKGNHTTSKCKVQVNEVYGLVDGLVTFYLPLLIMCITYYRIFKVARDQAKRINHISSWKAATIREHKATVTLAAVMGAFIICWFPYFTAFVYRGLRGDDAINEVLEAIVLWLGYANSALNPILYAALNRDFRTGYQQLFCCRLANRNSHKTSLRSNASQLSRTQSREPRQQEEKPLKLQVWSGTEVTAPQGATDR
Description: as §1

[4] = target: T4, HRH3 (Homo sapiens, UniProt Q9Y5N1); assay: PRESTO-Tango GPCR screen and dose-response; assay type: cell-based; conditions: for HRH3 dose-response raw reporter signal (Fig. 5b source data): replicate wells
T4 construct: expressed in transfected cells; host or cells: HTLA cells (HEK293 line stably expressing β-arrestin-TEV and tTA-Luciferase)
T4 sequence (Q9Y5N1 whole entry): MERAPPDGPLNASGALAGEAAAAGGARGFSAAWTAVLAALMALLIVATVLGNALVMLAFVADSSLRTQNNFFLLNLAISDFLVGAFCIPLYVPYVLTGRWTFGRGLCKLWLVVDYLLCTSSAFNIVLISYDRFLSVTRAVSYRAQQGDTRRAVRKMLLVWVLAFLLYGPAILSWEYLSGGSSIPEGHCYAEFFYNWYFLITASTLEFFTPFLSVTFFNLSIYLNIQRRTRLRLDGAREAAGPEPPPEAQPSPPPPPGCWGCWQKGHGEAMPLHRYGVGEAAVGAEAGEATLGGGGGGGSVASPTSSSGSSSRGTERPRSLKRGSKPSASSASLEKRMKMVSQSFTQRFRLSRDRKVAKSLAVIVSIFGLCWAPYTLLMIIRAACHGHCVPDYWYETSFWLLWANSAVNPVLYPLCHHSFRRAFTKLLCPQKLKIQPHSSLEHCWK
Description: as §1

[5] = tested on: ∆pyr K. oxytoca; assay: RNA-seq of compound-supplemented ∆pyr K. oxytoca; assay type: cell-based, Klebsiella oxytoca ATCC 8724; conditions: 10 µM
Description: A ∆pyr K. oxytoca glycerol stock was streaked onto an LB-Agar plate supplemented with spectinomycin (50 µg/mL) and incubated aerobically at 30°C for 24 h in a stationary incubator. Single colonies were grown for 24 h aerobically in 5 mL of M9 minimal medium supplemented with 5 g/L casamino acids and 0.4% D-galactose at 30 °C and 250 rpm. Each ∆pyr K. oxytoca overnight culture was diluted 1:1000 into fresh medium (5 mL) and incubated aerobically at 30 °C and 250 rpm to mid-exponential growth (OD600 = 0.8). These conditions abrogated both detectable pyrazine and pyrazinone production. At this point, 10 µM of compound in DMSO, were added to the cultures; an equal volume of DMSO was added to cultures without compound as a solvent vehicle control. The cultures were incubated under aerobic conditions with the compounds for one hour at 30 °C and at 250 rpm. After incubation, the cultures were centrifuged, the supernatants were decanted, and the cell pellets were quickly resuspended in 5 mL of Bacterial RNAProtect (Qiagen). The samples were centrifuged again, and the pellets were frozen on dry ice and stored at −80 °C until RNA extraction. The processed cell pellets were thawed on ice and resuspended in 200 µL of lysis buffer (10 mM Tris, 1 mM EDTA, 5 mg/mL lysozyme, 12.5 µg/mL proteinase K [pH 8.0]) and incubated at room temperature for 10 min. The RNA was extracted via the Qiagen RNeasy Mini kit, treated with TURBO DNase in a total volume of 100 µL at room temperature for 30 min, and extracted again using an RNeasy Mini kit. RNA-seq analysis was conducted by the Yale Center for Genome Analysis. Sequences were aligned to the K. oxytoca ATCC 8724 genome (NC_016612.1). Differential expression analysis was performed through DESeq2 and pathway enrichment analysis was performed through the Funage-Pro web-based platform.

Structure (SMILES): Cc1cnc(CCC(=O)O)c(Cc2ccccc2)n1 [compound 7]
- HRH4 dose-response raw reporter signal (Fig. 5b source data) ([1]; Log(10)Conc (M) -5): 245 and 339
- HRH4 dose-response raw reporter signal (Fig. 5b source data) ([1]; Log(10)Conc (M) -6): 295 and 333
- HRH4 dose-response raw reporter signal (Fig. 5b source data) ([1]; Log(10)Conc (M) -7): 242 and 304
- HRH4 dose-response raw reporter signal (Fig. 5b source data) ([1]; Log(10)Conc (M) -8): 271 and 336
- HRH4 dose-response raw reporter signal (Fig. 5b source data) ([1]; Log(10)Conc (M) -9): 425 and 324
- HRH4 dose-response raw reporter signal (Fig. 5b source data) ([1]; Log(10)Conc (M) -10): 307 and 401
- HRH4 dose-response raw reporter signal (Fig. 5b source data) ([1]; Log(10)Conc (M) -11): 312 and 366
- HRH4 dose-response raw reporter signal (Fig. 5b source data) ([1]; Log(10)Conc (M) -12): 242 and 292
- HRH4 dose-response raw reporter signal (Fig. 5b source data) ([1]; Log(10)Conc (M) -13): 256 and 383
- HRH4 dose-response raw reporter signal (Fig. 5b source data) ([1]; Log(10)Conc (M) -14): 271 and 304
- HRH4 dose-response raw reporter signal (Fig. 5b source data) ([1]; Log(10)Conc (M) -15): 286 and 230
- activity towards HRH4 ([1]; PRESTO-Tango dose-response): no activity
- HRH1 dose-response raw reporter signal (Fig. 5b source data) ([2]; Log(10)Conc (M) -4): 51351 and 49812 and 56357
- HRH1 dose-response raw reporter signal (Fig. 5b source data) ([2]; Log(10)Conc (M) -5): 52012 and 52029 and 55110
- HRH1 dose-response raw reporter signal (Fig. 5b source data) ([2]; Log(10)Conc (M) -6): 48657 and 55248 and 53819
- HRH1 dose-response raw reporter signal (Fig. 5b source data) ([2]; Log(10)Conc (M) -7): 47504 and 53144 and 54812
- HRH1 dose-response raw reporter signal (Fig. 5b source data) ([2]; Log(10)Conc (M) -8): 48011 and 51622 and 55024
- HRH1 dose-response raw reporter signal (Fig. 5b source data) ([2]; Log(10)Conc (M) -9): 49795 and 49308 and 52115
- HRH1 dose-response raw reporter signal (Fig. 5b source data) ([2]; Log(10)Conc (M) -10): 46794 and 49653 and 52654
- HRH1 dose-response raw reporter signal (Fig. 5b source data) ([2]; Log(10)Conc (M) -11): 47026 and 50225 and 51761
- HRH1 dose-response raw reporter signal (Fig. 5b source data) ([2]; Log(10)Conc (M) -12): 51855 and 50992 and 52000
- HRH1 dose-response raw reporter signal (Fig. 5b source data) ([2]; Log(10)Conc (M) -13): 49320 and 51552 and 55349
- HRH1 dose-response raw reporter signal (Fig. 5b source data) ([2]; Log(10)Conc (M) -14): 48035 and 52604 and 51817
- HRH1 dose-response raw reporter signal (Fig. 5b source data) ([2]; Log(10)Conc (M) -15): 39264 and 44810 and 48161
- activity towards HRH1 ([2]; PRESTO-Tango dose-response): no activity
- HRH2 dose-response raw reporter signal (Fig. 5b source data) ([3]; Log(10)Conc (M) -4): 62 and 50 and 47
- HRH2 dose-response raw reporter signal (Fig. 5b source data) ([3]; Log(10)Conc (M) -5): 47 and 50 and 83
- HRH2 dose-response raw reporter signal (Fig. 5b source data) ([3]; Log(10)Conc (M) -6): 18 and 53 and 71
- HRH2 dose-response raw reporter signal (Fig. 5b source data) ([3]; Log(10)Conc (M) -7): 50 (2×) and 74
- HRH2 dose-response raw reporter signal (Fig. 5b source data) ([3]; Log(10)Conc (M) -8): 44 and 35 and 56
- HRH2 dose-response raw reporter signal (Fig. 5b source data) ([3]; Log(10)Conc (M) -9): 97 and 65 and 41
- HRH2 dose-response raw reporter signal (Fig. 5b source data) ([3]; Log(10)Conc (M) -10): 56 and 32 and 21
- HRH2 dose-response raw reporter signal (Fig. 5b source data) ([3]; Log(10)Conc (M) -11): 18 and 53 and 44
- HRH2 dose-response raw reporter signal (Fig. 5b source data) ([3]; Log(10)Conc (M) -12): 32 and 65 and 68
- HRH2 dose-response raw reporter signal (Fig. 5b source data) ([3]; Log(10)Conc (M) -13): 35 and 62 and 97
- HRH2 dose-response raw reporter signal (Fig. 5b source data) ([3]; Log(10)Conc (M) -14): 32 and 47 and 68
- HRH2 dose-response raw reporter signal (Fig. 5b source data) ([3]; Log(10)Conc (M) -15): 77 and 53 and 71
- activity towards HRH2 ([3]; PRESTO-Tango dose-response): no activity
- HRH3 dose-response raw reporter signal (Fig. 5b source data) ([4]; Log(10)Conc (M) -4): 106 and 112 and 159
- HRH3 dose-response raw reporter signal (Fig. 5b source data) ([4]; Log(10)Conc (M) -5): 124 and 133 and 80
- HRH3 dose-response raw reporter signal (Fig. 5b source data) ([4]; Log(10)Conc (M) -6): 56 and 106 and 124
- HRH3 dose-response raw reporter signal (Fig. 5b source data) ([4]; Log(10)Conc (M) -7): 83 and 106 and 180
- HRH3 dose-response raw reporter signal (Fig. 5b source data) ([4]; Log(10)Conc (M) -8): 112 and 142 and 106
- HRH3 dose-response raw reporter signal (Fig. 5b source data) ([4]; Log(10)Conc (M) -9): 97 and 112 and 139
- HRH3 dose-response raw reporter signal (Fig. 5b source data) ([4]; Log(10)Conc (M) -10): 139 and 97 and 159
- HRH3 dose-response raw reporter signal (Fig. 5b source data) ([4]; Log(10)Conc (M) -11): 91 and 139 and 136
- HRH3 dose-response raw reporter signal (Fig. 5b source data) ([4]; Log(10)Conc (M) -12): 118 and 124 and 203
- HRH3 dose-response raw reporter signal (Fig. 5b source data) ([4]; Log(10)Conc (M) -13): 59 and 109 and 130
- HRH3 dose-response raw reporter signal (Fig. 5b source data) ([4]; Log(10)Conc (M) -14): 85 and 142 and 124
- HRH3 dose-response raw reporter signal (Fig. 5b source data) ([4]; Log(10)Conc (M) -15): 53 and 91 and 112
- activity towards HRH3 ([4]; PRESTO-Tango dose-response): no activity
- number of differentially regulated genes ([5]; one hour, vs DMSO, Padj < 0.05, abs(log2FC) > 1): 644 genes
- effect on enterobactin BGC transcription ([5]; vs DMSO control, RNA-seq): significantly enhanced transcription of the enterobactin BGC
- KEGG pathway enrichment neglogP: Citrate cycle, downregulated ([5]; Funage-Pro, 7 downreg): 3.041
- KEGG pathway enrichment neglogP: Glycerolipid metabolism, downregulated ([5]; Funage-Pro, 7 downreg): 4.481
- KEGG pathway enrichment neglogP: Nitrogen metabolism, downregulated ([5]; Funage-Pro, 7 downreg): 3.06
- KEGG pathway enrichment neglogP: ABC Transporters, upregulated ([5]; Funage-Pro, 7 upreg): 4.602
- KEGG pathway enrichment neglogP: Biosynthesis of siderophore group nonribosomal peptides, upregulated ([5]; Funage-Pro, 7 upreg): 5.301
- KEGG pathway enrichment neglogP: Oxidative phosphorylation, upregulated ([5]; Funage-Pro, 7 upreg): 3.252
- KEGG pathway enrichment neglogP: Phenylalanine Metabolism, upregulated ([5]; Funage-Pro, 7 upreg): 4.301
- effect on cytochrome-related operons transcription ([5]; RNA-seq, pyrazine 7 compared with pyrazinone 3): prominently upregulated
